The record followed here is article PMC7689096, “Cyclizing Painkillers: Development of Backbone-Cyclic TAPS Analogs” (Frontiers in Chemistry, 2020).

A short description of data set [1]: Caco-2 permeability assay.
A further data set relates to mice. As to the kind of experiment: Mouse open field test (locomotor adverse effect).
Data set [2] addresses T1, δ (DOP, OPRD2) opioid receptor (Mus musculus, UniProt P32300).
T1 construct: NG-10815 cells which express significant endogenous levels of δ opioid receptors; host or cells: NG-10815 (NG108-15) mouse N18TG2 neuroblastoma x rat C6-BU-1 glioma hybrid cells
As to the kind of experiment: DOP opioid receptor functional agonism in NG-10815 cells. It counts as cell-based, rat. As to conditions: At 10^−6 M, percent of control specific agonist response. The method, then:
(§1) Peptides were tested for μ (MOP, OPRM1) and δ (DOP, OPRD2) opioid receptor activation functional agonism and antagonism using CHO cells expressing human recombinant μ receptors and NG-10815 cells which express significant endogenous levels of δ opioid receptors. The cultures were incubated for 10 min at 37°C followed by impedance measurements of CHO cells and cAMP was assayed by the HTRF method using NG-10815 cells, according to CEREP standard assay protocols. The respective reference, non-peptide small molecules were tested concurrently with the TAPS analogs. The agonist compounds were: DPDPE (selective agonist of DOP receptor) and DAMGO (high MOP receptor specificity) and the antagonist compounds were: Naltrindole (selective DOP receptor antagonist) and CTOP (MOP receptor antagonist). […] The results are expressed as a percentage of respective control-specific response. […] These findings indicate that TAPS cyclic peptides are MOP selective full agonists. […] The cyclic TAPS peptide had lower activity than the linear parent TAPS peptide (90 ± 5%) – a finding that can be attributed to their restricted conformation relative to the flexible linear peptide conformation.
Evaluation of the Agonist Activity of Compounds at the Rat delta2 Receptor Endogenously Expressed in NG-10815 Cells, Determined by Measuring Their Effects on Impedance Modulation Using the CellKey (CDS) Detection Method
Cells are seeded onto 96-well plate coated with fibronectin at 2 × 10^5 cells/well in HBSS buffer (Invitrogen) + 20 mM HEPES (Invitrogen) with 0.1% BSA and allowed to equilibrate for 60 min at 37°C before the start of the experiment. Plates are placed onto the system and measurements are made at a temperature of 37°C. […] Impedance measurements are monitored for 10 min after ligand addition. The standard reference agonist is DPDPE, which is tested in each experiment at several concentrations to generate a concentration-response curve from which its EC50 value is calculated.
The respective reference, non-peptide small molecules were tested concurrently with the TAPS analogs; Agonist compounds DPDPE ([D-Pen2,D-Pen5]enkephalin), selective agonist of DOP receptor at 2 × 10^−9 M and DAMGO ([D-Ala2, N-MePhe4, Gly-ol] enkephalin), high MOP specificity at 2.5 × 10^−9 M; Antagonist compounds: naltrindole 7-(cyclopropylmethyl)-6,7-dehydro-4,5α-epoxy-3,14-dihydroxy-6,7-2′,3′-indolomorphinan hydrochloride, selective DOP antagonist, 5 × 10^−10 M and CTOP (D-Phe-Cys-Tyr-D-Trp-Orn-Thr-Pen-Thr-NH2), MOP antagonist at 3.4 × 10^−7 M. Depending on the assay volume and solvent tolerance, the stock solutions were diluted to [100×], [333×] or [1,000×] in 100% DMEM solvent, then either added directly or further diluted to [10×] or [5×] in H2O or Hank's balanced salt solution (HBSS) before addition to the assay well (final solvent concentration kept constant). The cultures were incubated for 10 min at 37°C followed by impedance measurements using cellular dielectric spectroscopy of CHO cells and cAMP was assayed by homogeneous time resolved fluorescence (HTRF) method using NG-10815 cells, according to CEREP standard assay protocols (https://euroscreenfast.com/assays/opioid-orl1-camp-fast-0360c; https://euroscreenfast.com/assays/opioid-op1-delta-camp-fast-0379c). […]

Data set [3] addresses T1, δ (DOP, OPRD2) opioid receptor. In words: DOP opioid receptor functional antagonism in NG-10815 cells. As to conditions: Between 10^−9-10^−6 M, percent inhibition of control specific agonist response. The data set is classed as cell-based, rat. The procedure:
as §1
The respective reference, non-peptide small molecules were tested concurrently with the TAPS analogs; Agonist compounds DPDPE ([D-Pen2,D-Pen5]enkephalin), selective agonist of DOP receptor at 2 × 10^−9 M and DAMGO ([D-Ala2, N-MePhe4, Gly-ol] enkephalin), high MOP specificity at 2.5 × 10^−9 M; Antagonist compounds: naltrindole 7-(cyclopropylmethyl)-6,7-dehydro-4,5α-epoxy-3,14-dihydroxy-6,7-2′,3′-indolomorphinan hydrochloride, selective DOP antagonist, 5 × 10^−10 M and CTOP (D-Phe-Cys-Tyr-D-Trp-Orn-Thr-Pen-Thr-NH2), MOP antagonist at 3.4 × 10^−7 M. Depending on the assay volume and solvent tolerance, the stock solutions were diluted to [100×], [333×] or [1,000×] in 100% DMEM solvent, then either added directly or further diluted to [10×] or [5×] in H2O or Hank's balanced salt solution (HBSS) before addition to the assay well (final solvent concentration kept constant). The cultures were incubated for 10 min at 37°C followed by impedance measurements using cellular dielectric spectroscopy of CHO cells and cAMP was assayed by homogeneous time resolved fluorescence (HTRF) method using NG-10815 cells, according to CEREP standard assay protocols (https://euroscreenfast.com/assays/opioid-orl1-camp-fast-0360c; https://euroscreenfast.com/assays/opioid-op1-delta-camp-fast-0379c). The results (mean of three experiments) are expressed as a percent of control specific agonist response [(measured TAPS specific response/control specific agonist response) × 100] and as a percent inhibition of control specific agonist response [100 – (measured TAPS specific response/control specific agonist response) × 100] obtained in the presence of the TAPS compounds. Results showing a stimulation or an inhibition lower than 25% were considered not significant and mostly attributable to variability of the signal around the control level. Results showing a stimulation or an inhibition higher than 50% were considered to represent significant effects of the TAPS compounds.

T1 sequence (P32300 whole entry): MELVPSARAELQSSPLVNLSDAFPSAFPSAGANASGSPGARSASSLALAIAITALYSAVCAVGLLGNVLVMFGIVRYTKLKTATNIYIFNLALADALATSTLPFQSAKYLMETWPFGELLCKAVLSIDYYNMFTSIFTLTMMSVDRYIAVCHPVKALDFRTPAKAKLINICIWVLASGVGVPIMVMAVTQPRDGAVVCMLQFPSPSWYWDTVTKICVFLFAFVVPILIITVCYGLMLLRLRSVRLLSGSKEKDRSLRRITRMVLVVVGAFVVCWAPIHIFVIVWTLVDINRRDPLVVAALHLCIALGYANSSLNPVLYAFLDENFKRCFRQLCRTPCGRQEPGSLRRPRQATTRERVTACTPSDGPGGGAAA
Protocol for mice: In the mouse open field test (OF test), the distance and speed the animal moves over a 5-min time period is recorded, giving an indication as to whether a medication administered affected its locomotor activity. TAPS c(2-6) (5 or 15 mg/kg) was administered via IP administration and compared to morphine (5 mg/kg) and vehicle (PBS).
Male ICR mice (Harlan, Israel) 7 weeks of age (25–27) were used for all pharmacodynamic experiments after 5-day acclimation to laboratory conditions. Animals were allowed free access to food (standard commercial, sterile rodent diet) and water throughout the experiments and kept in automatically controlled environmental conditions for temperature and humidity levels in a 12-h dark-light cycle.
Animals were placed in the OF apparatus for a period of 5 min. The apparatus utilizes computerized monitoring which measures the speed and distance the animal walks during the measurement period. […] Baseline measurements were taken 1 day before initiation of the experiments and again at 0.5, 1.5, 3, and 5 h post injection.

In data set [1], `N=C(N)NCCC[C@@H]1C(=O)N[C@@H](Cc2ccccc2)C(=O)N(CC(N)=O)CCNC(=O)NCCCCCCN1C(=O)[C@@H](N)Cc1ccc(O)cc1` [TAPS c(2-6)] registered an apparent permeability coefficient (Papp) of 11 ×10⁻⁶ cm/s, a Papp A→B of 0.038 ×10⁻⁶ cm/s and an apparent permeability from basolateral to apical (Papp B→A) of 0.05 ×10⁻⁶ cm/s. Moreover, the “locomotor effect (distance and speed of movement over 5 min)” value in the data set on mice (5 mg/kg IP) is given as “no locomotor effect”. In addition, the “locomotor effect (distance and speed of movement over 5 min)” value with mice (15 mg/kg IP) was “no locomotor effect”. For the same compound, in data set [2], the “DOP agonist (%)” value is 11%. The “DOP antagonist (%)” value in data set [3] was found to be 6%.
